# Target: human NEP (Homo sapiens (Human), UniProt P08473)
# Experiment: In vitro enzyme inhibition assay at human NEP
# Conditions: pKi, recombinant human NEP, fluorogenic peptide substrate, 37° C.
# Chain of human NEP (P08473 52-750): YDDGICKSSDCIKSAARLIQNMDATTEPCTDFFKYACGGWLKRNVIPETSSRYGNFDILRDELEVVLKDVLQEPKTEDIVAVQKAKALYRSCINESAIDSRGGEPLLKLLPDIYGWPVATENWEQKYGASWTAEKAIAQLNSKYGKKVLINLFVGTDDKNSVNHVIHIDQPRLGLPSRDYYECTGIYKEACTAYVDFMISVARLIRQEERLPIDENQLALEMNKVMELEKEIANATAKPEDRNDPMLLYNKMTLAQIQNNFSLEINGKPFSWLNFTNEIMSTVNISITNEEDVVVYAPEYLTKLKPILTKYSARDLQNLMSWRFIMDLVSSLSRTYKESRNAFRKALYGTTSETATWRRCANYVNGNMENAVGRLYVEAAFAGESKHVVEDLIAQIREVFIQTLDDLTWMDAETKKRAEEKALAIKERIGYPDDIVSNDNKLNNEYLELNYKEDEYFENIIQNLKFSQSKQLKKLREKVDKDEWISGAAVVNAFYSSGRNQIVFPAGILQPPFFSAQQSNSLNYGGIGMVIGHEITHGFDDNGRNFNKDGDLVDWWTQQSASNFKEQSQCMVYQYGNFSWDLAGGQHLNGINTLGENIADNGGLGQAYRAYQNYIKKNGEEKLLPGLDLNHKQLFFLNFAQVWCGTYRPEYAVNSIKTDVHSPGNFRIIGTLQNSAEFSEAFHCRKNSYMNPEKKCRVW
row,Ki,SMILES
1,≤ 1 nM,"O=C(N[C@H](Cc1ccc(-c2cc(Cl)ccc2F)cc1)C[C@@H](Cn1ccnn1)C(=O)O)c1cnn[nH]1 [Example 61a, (2S,4S)-5-(5′-Chloro-2′-fluorobiphenyl-4-yl)-4-[(3H-[1,2,3]triazole-4-carbonyl)amino]-2-[1,2,3]triazol-1-ylmethylpentanoic Acid]"
2,≤ 1 nM,"O=C(N[C@H](Cc1ccc(-c2cc(Cl)ccc2F)cc1)C[C@@H](Cn1nccn1)C(=O)O)c1cnn[nH]1 [Example 61b, (2S,4S)-5-(5′-Chloro-2′-fluorobiphenyl-4-yl)-4-[(3H-[1,2,3]triazole-4-carbonyl)amino]-2-[1,2,3]triazol-2-ylmethylpentanoic Acid]"
3,1.26 to 3.16 nM,"CNCC(=O)N[C@H](C[C@@H](Cc1ccc(-c2cc(Cl)ccc2F)cc1)NC(=O)c1cnn[nH]1)C(=O)O [Example 65, (2R,4R)-5-(5′-Chloro-2′-fluorobiphenyl-4-yl)-2-(2-methylaminoacetylamino)-4-[(3H-[1,2,3]triazole-4-carbonyl)amino]pentanoic Acid]"
4,3.16 to 10 nM,"NCCCC(=O)NC[C@H](C[C@@H](Cc1ccc(-c2cc(Cl)ccc2F)cc1)NC(=O)c1cnn[nH]1)C(=O)O [Example 68, (2S,4S)-2-[(4-Aminobutyrylamino)methyl]-5-(5′-chloro-2′-fluorobiphenyl-4-yl)-4-[(3H-[1,2,3]triazole-4-carbonyl)amino]pentanoic acid]"

# Second part, the compound before the results:
row,SMILES,Ki
1,"NCCCC[C@H](N)C(=O)N[C@H](C[C@@H](Cc1ccc(-c2cc(Cl)ccc2F)cc1)NC(=O)c1cnn[nH]1)C(=O)O [Example 56, (2R,4R)-5-(5′-Chloro-2′-fluorobiphenyl-4-yl)-2-((S)-2,6-diaminohexanoylamino)-4-[(3H-[1,2,3]triazole-4-carbonyl)amino]pentanoic Acid]",1.26 to 3.16 nM
2,"O=C(N[C@H](Cc1ccc(-c2cc(Cl)ccc2F)cc1)C[C@@H](Cc1nnn[nH]1)C(=O)O)c1cnn[nH]1 [Example 63, (2S,4S)-5-(5′-Chloro-2′-fluorobiphenyl-4-yl)-2-(1H-tetrazol-5-ylmethyl)-4-[(3H-[1,2,3]triazole-4-carbonyl)amino]pentanoic Acid]",1.26 to 3.16 nM
3,"CN(C)CC(=O)N[C@H](C[C@@H](Cc1ccc(-c2cc(Cl)ccc2F)cc1)NC(=O)c1cnn[nH]1)C(=O)O [Example 64, (2R,4R)-5-(5′-Chloro-2′-fluorobiphenyl-4-yl)-2-(2-dimethylaminoacetylamino)-4-[(3H-[1,2,3]triazole-4-carbonyl)amino]pentanoic Acid]",1.26 to 3.16 nM
4,"O=C(N[C@H](Cc1ccc(-c2cc(Cl)ccc2F)cc1)C[C@@H](Cc1noc(=O)[nH]1)C(=O)O)c1cnn[nH]1 [Example 66, (2S,4S)-5-(5′-Chloro-2′-fluorobiphenyl-4-yl)-2-(5-oxo-4,5-dihydro-[1,2,4]oxadiazol-3-ylmethyl)-4-[(3H-[1,2,3]triazole-4-carbonyl)amino]pentanoic Acid]",1.26 to 3.16 nM

# Same assay, conditions: recombinant human NEP, fluorogenic peptide substrate, 37° C.
row,pKi,SMILES
1,≧9.0,"N[C@@H](Cc1ccccc1)C(=O)N[C@H](C[C@@H](Cc1ccc(-c2cc(Cl)ccc2F)cc1)NC(=O)c1cnn[nH]1)C(=O)O [Example 57, (2R,4R)-2-((S)-2-Amino-3-phenylpropionylamino)-5-(5′-chloro-2′-fluorobiphenyl-4-yl)-4-[(3H-[1,2,3]triazole-4-carbonyl)amino]pentanoic Acid]"
2,≧9.0,"O=C(N[C@H](Cc1ccc(-c2cc(Cl)ccc2F)cc1)C[C@@H](Cn1ccnc1)C(=O)O)c1cnn[nH]1 [Example 62, (2S,4S)-5-(5′-Chloro-2′-fluorobiphenyl-4-yl)-2-imidazol-1-ylmethyl-4-[(3H-[1,2,3]triazole-4-carbonyl)amino]pentanoic Acid]"
3,≧9.0,"COC(=O)NCC(=O)N[C@H](C[C@@H](Cc1ccc(-c2cc(Cl)ccc2F)cc1)NC(=O)c1c[nH]nn1)C(=O)O [Example 67, (2R,4R)-5-(5′-Chloro-2′-fluorobiphenyl-4-yl)-2-(2-methoxycarbonylaminoacetylamino)-4-[(1H-[1,2,3]triazole-4-carbonyl)amino]pentanoic Acid]"

# Source: patent publication US9593110B2, “Neprilysin inhibitors” (Theravence Biopharma R&D IP, LLC, priority 2014, dated 2017)
